# ChEMBL document CHEMBL1201862, “PubChem BioAssay data set” (2004)
# Calls of active or inactive are those of the source.
# Experiments:
# Leucine aminopeptidase = target: T1, Leucine aminopeptidase (Plasmodium falciparum 3D7, UniProt Q8IL11); experiment: P. falciparum M17LAP inhibitors, primary screen, biochemical, fluorogenic H-Leu-NHMec substrate, 1536-well (AID 1619); type: functional
# T1 sequence (Q8IL11 whole entry): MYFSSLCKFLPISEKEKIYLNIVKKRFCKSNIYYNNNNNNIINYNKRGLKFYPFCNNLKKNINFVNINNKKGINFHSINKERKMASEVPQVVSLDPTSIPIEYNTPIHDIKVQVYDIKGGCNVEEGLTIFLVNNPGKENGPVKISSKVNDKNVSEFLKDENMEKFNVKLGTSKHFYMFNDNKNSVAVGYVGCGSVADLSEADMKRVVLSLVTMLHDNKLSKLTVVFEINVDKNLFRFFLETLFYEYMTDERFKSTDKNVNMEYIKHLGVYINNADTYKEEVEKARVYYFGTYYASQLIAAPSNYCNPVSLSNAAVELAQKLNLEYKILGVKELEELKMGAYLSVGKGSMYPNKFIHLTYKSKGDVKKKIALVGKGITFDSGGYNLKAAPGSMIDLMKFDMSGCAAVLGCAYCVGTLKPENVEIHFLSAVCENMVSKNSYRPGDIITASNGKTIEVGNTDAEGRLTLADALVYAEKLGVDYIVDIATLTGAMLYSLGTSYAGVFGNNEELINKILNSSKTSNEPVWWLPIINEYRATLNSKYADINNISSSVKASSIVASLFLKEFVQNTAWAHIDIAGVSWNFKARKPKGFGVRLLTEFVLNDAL
# Procathepsin L = Procathepsin L (Homo sapiens, UniProt P07711); experiment: cathepsin L inhibitors, dose response, counter-screen for M1/M17 aminopeptidase inhibitor project, biochemical, QFRET, 1536-well (AID 2214)
# [1] = target: T2, Probable nicotinate-nucleotide adenylyltransferase (Staphylococcus aureus (strain N315), UniProt P65502); type: functional, Staphylococcus aureus subsp. aureus N315;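 for IC50 Mean: confirmatory dose-response retesting of NadD inhibitor hits first found in an ultra-high-throughput screen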
# T2 sequence (P65502 whole entry): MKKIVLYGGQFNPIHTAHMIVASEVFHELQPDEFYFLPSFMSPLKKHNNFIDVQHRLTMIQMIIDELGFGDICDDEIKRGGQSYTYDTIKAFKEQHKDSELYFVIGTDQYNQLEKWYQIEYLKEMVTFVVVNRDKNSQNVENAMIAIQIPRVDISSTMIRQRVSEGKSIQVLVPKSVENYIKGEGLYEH
# [2] = target: T2, Probable nicotinate-nucleotide adenylyltransferase; type: functional, Staphylococcus aureus subsp. aureus N315; conditions: read-out: IC50_Mean
# Aspartyl aminopeptidase = target: T3, Aspartyl aminopeptidase (Plasmodium falciparum 3D7, UniProt Q8I2J3); experiment: Counterscreen for inhibitors of M1 and M17 aminopeptidases: QFRET-based biochemical high throughput dose response assay for inhibitors of the Plasmodium falciparum M18 Aspartyl Aminopeptidase (PFM18AAP). [Related PubChem assays: 1619 (Screening assay (M17LAP inhibitors).), 1445 (Screening assay (M1AAP inhibitors).)]
# T3 sequence (Q8I2J3 whole entry): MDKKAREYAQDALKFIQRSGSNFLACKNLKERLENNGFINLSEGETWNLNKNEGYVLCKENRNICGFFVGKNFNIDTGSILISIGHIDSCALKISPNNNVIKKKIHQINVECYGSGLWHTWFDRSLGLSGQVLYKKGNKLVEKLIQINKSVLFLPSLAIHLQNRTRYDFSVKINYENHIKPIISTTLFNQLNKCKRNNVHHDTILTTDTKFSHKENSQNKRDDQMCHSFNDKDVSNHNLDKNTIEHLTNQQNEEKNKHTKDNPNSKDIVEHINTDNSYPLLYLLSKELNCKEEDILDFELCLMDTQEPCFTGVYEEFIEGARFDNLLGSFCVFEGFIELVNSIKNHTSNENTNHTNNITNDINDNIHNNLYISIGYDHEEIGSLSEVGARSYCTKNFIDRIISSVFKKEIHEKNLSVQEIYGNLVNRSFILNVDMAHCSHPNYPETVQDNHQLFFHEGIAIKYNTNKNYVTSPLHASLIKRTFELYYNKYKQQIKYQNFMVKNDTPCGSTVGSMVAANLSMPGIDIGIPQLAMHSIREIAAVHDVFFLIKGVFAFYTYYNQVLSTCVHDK
# Genome polyprotein = Genome polyprotein (dengue virus type 2, UniProt P29990); experiment: Dengue-2 NS5 methyltransferase inhibitors, primary screen, biochemical, confirmation dose response (AID 588689); type: functional
# fMet-Leu-Phe receptor = fMet-Leu-Phe receptor (Homo sapiens, UniProt P21462); experiment: FPR ligands, dose response (AID 519); type: functional
# [3] = target: Long-chain-fatty-acid--AMP ligase FadD28 (Mycobacterium tuberculosis, UniProt P9WQ59); experiment: Fluorescence polarization aasay to screen for inhibitors that compete for the binding of FadD28 to a bisubstrate Measured in Biochemical System Using Plate Reader - 2147-01_Inhibitor_Dose_CherryPick_Activity.; type: functional, Mycobacterium tuberculosis H37Rv
# Long-chain-fatty-acid--AMP ligase FadD28, sequence (P9WQ59 whole entry): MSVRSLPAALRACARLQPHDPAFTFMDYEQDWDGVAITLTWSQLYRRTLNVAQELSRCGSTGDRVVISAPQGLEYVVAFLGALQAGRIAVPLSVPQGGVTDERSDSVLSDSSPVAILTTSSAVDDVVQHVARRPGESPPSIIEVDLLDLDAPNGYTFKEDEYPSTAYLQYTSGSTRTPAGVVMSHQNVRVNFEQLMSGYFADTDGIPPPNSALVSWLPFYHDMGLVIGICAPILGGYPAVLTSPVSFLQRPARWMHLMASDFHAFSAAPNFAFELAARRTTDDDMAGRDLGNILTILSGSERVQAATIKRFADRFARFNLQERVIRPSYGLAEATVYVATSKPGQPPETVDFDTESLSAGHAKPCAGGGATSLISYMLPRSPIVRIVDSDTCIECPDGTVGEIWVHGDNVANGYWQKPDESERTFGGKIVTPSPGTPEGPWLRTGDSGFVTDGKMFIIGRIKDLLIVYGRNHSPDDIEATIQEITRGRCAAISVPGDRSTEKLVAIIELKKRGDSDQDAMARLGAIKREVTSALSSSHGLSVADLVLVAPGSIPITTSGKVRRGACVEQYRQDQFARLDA
# Beta-galactosidase = Beta-galactosidase (Escherichia coli, UniProt Q8VNN2); experiment: Dose response counterscreen for EBI2 assay utilizing the enzyme, b-galactosidase.; type: functional
# Beta-galactosidase, sequence (Q8VNN2 whole entry): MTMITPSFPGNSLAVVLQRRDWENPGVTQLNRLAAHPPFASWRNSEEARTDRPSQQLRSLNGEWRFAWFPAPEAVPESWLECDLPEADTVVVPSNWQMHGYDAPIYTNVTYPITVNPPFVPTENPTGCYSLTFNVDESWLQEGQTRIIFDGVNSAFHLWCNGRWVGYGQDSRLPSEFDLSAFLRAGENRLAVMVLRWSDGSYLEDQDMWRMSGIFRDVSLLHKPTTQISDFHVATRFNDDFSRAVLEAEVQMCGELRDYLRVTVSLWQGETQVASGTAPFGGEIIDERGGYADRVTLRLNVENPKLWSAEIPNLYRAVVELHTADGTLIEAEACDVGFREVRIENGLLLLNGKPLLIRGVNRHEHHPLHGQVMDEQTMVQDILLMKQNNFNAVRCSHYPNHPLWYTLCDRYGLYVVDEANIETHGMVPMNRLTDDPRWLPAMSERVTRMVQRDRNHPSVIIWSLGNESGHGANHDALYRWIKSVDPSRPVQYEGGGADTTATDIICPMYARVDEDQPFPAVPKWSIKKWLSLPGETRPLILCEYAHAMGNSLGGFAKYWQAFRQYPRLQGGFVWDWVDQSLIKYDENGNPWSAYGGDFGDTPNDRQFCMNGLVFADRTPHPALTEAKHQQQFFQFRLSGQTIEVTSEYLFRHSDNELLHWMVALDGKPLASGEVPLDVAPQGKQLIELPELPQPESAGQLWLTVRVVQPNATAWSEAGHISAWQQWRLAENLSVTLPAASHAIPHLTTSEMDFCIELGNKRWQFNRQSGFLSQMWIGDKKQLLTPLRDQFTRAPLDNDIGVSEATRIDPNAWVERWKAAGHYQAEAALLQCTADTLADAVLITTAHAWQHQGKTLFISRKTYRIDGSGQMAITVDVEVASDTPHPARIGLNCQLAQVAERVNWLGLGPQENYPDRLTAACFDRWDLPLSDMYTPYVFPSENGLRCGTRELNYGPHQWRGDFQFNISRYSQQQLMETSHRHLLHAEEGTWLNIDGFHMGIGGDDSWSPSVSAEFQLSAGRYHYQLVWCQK
# [4] = target: Luciferin 4-monooxygenase (Photinus pyralis, UniProt P08659); experiment: firefly luciferase enzyme inhibitors, dose response, biochemical, luminescence (AID 1891)
# [5] = Luminescence Cell-Based Dose Confirmation HTS to Identify Inhibitors of Platelet Dense Granule Release. [Related pubchem assays: 1663 (Primary HTS), 1678 (Summary of Project)]; type: functional
# [6] = target: Fructose-bisphosphate aldolase (Mycobacterium tuberculosis, UniProt P9WQA3); experiment: Fluorescence-based biochemical high throughput dose response assay for inhibitors of the fructose-bisphosphate aldolase (FBA) of M. tuberculosis.; type: functional
# [7] = tested on: Streptococcus sp. 'group A'; experiment: growth inhibition of control SK(-) GAS strain, dose response, counter-screen for streptokinase expression inhibitor project, luminescence, kanamycin, BacTiterGlo, confirmation (AID 1900); type: functional, organism-based
# Streptokinase A = target: T4, Streptokinase A (Streptococcus pyogenes serotype M1, UniProt P10520); experiment: S. pyogenes streptokinase expression inhibitors, potency, dose response, plasminogen activation absorbance, OD405 (AID 1914); type: functional, Streptococcus pyogenes M1 GAS;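 note: secreted streptokinase activity via plasminogen activation per viability signal from cell pellet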
# T4 sequence (P10520 whole entry): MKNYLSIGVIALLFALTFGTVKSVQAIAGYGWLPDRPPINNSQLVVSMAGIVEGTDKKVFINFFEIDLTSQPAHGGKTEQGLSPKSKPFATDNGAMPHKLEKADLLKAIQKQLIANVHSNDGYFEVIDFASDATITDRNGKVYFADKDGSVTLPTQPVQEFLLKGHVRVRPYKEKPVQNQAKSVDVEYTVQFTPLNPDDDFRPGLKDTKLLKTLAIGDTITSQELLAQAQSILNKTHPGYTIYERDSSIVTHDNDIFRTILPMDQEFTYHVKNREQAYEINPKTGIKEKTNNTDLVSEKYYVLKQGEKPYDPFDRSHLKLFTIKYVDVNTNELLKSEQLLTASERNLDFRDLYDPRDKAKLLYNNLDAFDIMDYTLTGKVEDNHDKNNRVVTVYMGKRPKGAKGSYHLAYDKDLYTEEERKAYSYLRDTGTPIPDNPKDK
# Mu-type opioid receptor = Mu-type opioid receptor (Homo sapiens, UniProt P35372); type: functional, cell-based;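 note: U2OS cells with beta-arrestin recruitment to OPRM1 by beta-gal complementation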
# Mu-type opioid receptor, sequence (P35372 whole entry): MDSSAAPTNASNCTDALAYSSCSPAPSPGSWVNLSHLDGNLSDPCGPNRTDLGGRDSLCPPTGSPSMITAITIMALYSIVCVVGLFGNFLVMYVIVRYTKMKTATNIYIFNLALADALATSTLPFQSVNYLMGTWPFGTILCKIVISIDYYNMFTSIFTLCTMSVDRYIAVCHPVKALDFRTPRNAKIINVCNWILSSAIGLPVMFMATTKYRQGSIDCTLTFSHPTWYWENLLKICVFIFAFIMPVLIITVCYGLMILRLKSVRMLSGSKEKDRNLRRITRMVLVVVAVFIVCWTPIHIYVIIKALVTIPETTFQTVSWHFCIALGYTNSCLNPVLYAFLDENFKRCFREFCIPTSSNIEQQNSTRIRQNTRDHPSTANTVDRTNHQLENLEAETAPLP
# Streptococcus = experiment: Group A Streptococcus viability loss, dose response, counter-screen for streptokinase expression inhibitor project, luminescence, BacTiterGlo (AID 1915); type: functional, organism-based;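 note: potency for reduction of bacterial viability or growth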
# [8] = target: 5-hydroxytryptamine receptor 2A (Mus musculus, UniProt P35363); type: functional, cell-based;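 note: CHO-K1 cells with tagged receptor and beta-arrestin; agonist potency measured as compound-induced activation of the receptor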
# 5-hydroxytryptamine receptor 2A, sequence (P35363 whole entry): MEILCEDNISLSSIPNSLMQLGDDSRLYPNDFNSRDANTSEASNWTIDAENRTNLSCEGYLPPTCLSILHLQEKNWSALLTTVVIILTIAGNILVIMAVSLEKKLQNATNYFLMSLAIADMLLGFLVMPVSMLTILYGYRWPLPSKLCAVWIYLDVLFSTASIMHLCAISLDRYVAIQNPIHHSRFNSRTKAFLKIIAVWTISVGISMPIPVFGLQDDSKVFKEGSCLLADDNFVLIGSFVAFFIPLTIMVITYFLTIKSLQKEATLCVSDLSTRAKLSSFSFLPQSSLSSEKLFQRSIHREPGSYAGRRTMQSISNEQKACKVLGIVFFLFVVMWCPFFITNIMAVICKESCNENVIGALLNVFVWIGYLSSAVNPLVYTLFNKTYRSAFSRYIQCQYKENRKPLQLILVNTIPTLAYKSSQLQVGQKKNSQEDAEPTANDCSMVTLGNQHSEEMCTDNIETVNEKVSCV
# [9] = target: 26S proteasome non-ATPase regulatory subunit 14 (Homo sapiens, UniProt O00487); experiment: inhibition of proteasome subunit RPN11 – biochemical, fluorescence polarization, uHTS hits, confirmation (AID 602368); type: functional
# 26S proteasome non-ATPase regulatory subunit 14, sequence (O00487 whole entry): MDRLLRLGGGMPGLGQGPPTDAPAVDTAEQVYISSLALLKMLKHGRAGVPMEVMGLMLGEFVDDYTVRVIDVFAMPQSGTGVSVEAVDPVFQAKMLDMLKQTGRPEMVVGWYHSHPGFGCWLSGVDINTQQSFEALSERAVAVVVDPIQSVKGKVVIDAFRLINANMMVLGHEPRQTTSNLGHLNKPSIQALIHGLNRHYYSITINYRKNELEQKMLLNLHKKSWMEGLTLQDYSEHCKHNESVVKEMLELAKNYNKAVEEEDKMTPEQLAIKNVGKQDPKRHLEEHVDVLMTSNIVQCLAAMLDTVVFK
# Prothrombin = Prothrombin (Bos taurus, UniProt P00735); experiment: thrombin inhibition, dose response, biochemical, fluorescence polarization, uHTS hits (AID 602369); type: functional
# [10] = target: T5, Small ubiquitin-related modifier 1 (Homo sapiens, UniProt P63165); experiment: inhibitors of SUMO1 partner interactions, dose response, biochemical, FRET (AID 624383); type: functional; conditions: read-out: IC50_Mean
# T5 sequence (P63165 whole entry): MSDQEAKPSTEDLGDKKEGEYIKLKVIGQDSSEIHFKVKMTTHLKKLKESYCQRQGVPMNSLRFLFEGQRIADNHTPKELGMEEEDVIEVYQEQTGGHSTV
# [11] = target: T5, Small ubiquitin-related modifier 1; experiment: inhibitors of SUMO1 peptide binding, dose response, biochemical, fluorescence polarization, uHTS hits (AID 624382); type: functional; conditions: read-out: IC50_Mean
# [12] = target: T6, Rac GTPase-activating protein 1 (Homo sapiens, UniProt Q9H0H5); experiment: MgcRacGAP GTPase-activating activity inhibitors, confirmation, biochemical, ADP Hunter fluorescence, primary and confirmatory (AID 624330); type: functional
# T6 sequence (Q9H0H5 whole entry): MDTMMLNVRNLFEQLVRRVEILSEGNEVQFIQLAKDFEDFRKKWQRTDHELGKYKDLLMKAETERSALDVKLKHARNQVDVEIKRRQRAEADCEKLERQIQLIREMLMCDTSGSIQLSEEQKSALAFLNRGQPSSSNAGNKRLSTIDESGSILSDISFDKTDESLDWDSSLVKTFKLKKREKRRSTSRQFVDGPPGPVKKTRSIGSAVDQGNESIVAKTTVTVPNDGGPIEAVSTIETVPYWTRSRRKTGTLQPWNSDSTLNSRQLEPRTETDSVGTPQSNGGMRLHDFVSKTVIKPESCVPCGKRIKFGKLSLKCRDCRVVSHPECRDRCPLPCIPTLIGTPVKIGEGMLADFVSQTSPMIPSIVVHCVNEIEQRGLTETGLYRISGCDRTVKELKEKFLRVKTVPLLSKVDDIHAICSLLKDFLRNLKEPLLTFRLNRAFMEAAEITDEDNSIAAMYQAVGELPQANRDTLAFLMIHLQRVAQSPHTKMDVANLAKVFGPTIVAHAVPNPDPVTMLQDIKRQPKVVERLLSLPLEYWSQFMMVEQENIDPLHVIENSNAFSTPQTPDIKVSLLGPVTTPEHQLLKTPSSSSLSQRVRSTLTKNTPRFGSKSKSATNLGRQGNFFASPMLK
# [13] = target: 72 kDa type IV collagenase (Homo sapiens, UniProt P08253); experiment: Dose Response validation of uHTS RPN11 inhibitor hits using a MMP-2 Fluorescence assay.; type: functional
# 72 kDa type IV collagenase, sequence (P08253 whole entry): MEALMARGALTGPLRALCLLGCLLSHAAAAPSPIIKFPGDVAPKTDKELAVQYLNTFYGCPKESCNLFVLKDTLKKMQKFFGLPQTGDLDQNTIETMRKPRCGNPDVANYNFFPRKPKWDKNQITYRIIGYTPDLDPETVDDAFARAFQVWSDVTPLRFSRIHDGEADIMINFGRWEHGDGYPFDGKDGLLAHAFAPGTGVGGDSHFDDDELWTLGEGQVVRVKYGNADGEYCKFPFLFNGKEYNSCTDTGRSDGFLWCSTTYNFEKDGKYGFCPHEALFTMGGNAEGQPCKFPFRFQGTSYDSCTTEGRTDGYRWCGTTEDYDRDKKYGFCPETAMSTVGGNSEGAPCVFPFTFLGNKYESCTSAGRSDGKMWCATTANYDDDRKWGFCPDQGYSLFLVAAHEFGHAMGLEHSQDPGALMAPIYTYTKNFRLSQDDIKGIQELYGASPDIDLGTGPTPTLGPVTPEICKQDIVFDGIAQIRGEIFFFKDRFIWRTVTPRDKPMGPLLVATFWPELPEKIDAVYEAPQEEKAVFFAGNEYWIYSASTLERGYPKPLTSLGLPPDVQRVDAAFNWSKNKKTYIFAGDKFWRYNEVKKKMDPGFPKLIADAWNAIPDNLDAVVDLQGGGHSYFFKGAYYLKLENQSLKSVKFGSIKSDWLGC
# [14] = target: T7, Sentrin-specific protease 1 (Homo sapiens, UniProt Q9P0U3); experiment: potency of human SENP1 inhibitors, dose response, biochemical, kinetic FRET (AID 651697); type: functional; conditions: read-out: IC50_Mean
# T7 sequence (Q9P0U3 whole entry, the tested form may be a part): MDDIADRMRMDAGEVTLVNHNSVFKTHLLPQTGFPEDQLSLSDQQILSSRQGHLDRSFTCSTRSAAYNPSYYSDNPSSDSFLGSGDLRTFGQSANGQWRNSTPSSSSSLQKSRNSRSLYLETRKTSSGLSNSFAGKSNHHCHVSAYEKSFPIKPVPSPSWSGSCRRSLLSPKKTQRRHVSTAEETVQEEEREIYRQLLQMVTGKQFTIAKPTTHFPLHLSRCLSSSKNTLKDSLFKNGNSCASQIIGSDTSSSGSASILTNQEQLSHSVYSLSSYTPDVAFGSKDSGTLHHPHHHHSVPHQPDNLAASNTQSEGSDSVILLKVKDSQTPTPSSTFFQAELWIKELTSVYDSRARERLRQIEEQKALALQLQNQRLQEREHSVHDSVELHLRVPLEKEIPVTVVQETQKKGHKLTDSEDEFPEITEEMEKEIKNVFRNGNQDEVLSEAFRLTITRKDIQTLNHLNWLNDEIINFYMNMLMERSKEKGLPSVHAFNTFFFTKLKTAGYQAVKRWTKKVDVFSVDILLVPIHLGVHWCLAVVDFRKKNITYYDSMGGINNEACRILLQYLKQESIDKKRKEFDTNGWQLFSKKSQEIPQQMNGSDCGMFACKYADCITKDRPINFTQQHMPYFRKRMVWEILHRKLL
# [15] = target: T7, Sentrin-specific protease 1; experiment: Dose response confirmation of small molecule inhibitors of the catalytic domain of the SUMO protease, SENP1 in a FRET assay.; type: functional; conditions: read-out: IC50_Mean
# [16] = NIH/3T3 fibroblast cytotoxicity, dose response, cytotoxicity control for T. cruzi growth inhibitor project, cell-based, cherry-pick samples, set 2 (AID 651817); type: functional; conditions: NIH3T3
# Beta-lactamase [17] = target: Beta-lactamase (Salmonella choleraesuis (strain SC-B67), UniProt Q5J463)
# Beta-lactamase (Salmonella choleraesuis (strain SC-B67), UniProt Q5J463), sequence (Q5J463 whole entry): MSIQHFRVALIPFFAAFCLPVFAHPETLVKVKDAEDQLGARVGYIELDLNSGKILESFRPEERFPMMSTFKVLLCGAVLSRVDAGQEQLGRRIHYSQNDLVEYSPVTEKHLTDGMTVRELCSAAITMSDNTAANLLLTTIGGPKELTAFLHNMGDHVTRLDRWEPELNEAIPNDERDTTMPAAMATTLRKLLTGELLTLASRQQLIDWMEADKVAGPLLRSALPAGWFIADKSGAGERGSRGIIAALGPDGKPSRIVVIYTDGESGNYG
# Beta-lactamase [18] = target: Beta-lactamase (Pseudomonas aeruginosa, UniProt Q79MP6);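 note: biochemical dose-response test of metallo-beta-lactamase enzyme inhibition, read out by epi-absorbance; purified recombinant IMP-1 metallo-beta-lactamase with nitrocefin as substrate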
# Beta-lactamase (Pseudomonas aeruginosa, UniProt Q79MP6), sequence (Q79MP6 whole entry): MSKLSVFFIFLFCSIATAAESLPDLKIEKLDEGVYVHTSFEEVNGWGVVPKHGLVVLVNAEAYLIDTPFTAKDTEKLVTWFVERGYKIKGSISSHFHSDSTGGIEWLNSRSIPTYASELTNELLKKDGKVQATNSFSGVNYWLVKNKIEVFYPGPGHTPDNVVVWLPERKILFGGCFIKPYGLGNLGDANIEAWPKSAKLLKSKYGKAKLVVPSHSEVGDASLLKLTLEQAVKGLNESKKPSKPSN
# [19] = target: T8, Alkaline phosphatase, tissue-nonspecific isozyme (Homo sapiens, UniProt P05186)
# T8 sequence (P05186 whole entry): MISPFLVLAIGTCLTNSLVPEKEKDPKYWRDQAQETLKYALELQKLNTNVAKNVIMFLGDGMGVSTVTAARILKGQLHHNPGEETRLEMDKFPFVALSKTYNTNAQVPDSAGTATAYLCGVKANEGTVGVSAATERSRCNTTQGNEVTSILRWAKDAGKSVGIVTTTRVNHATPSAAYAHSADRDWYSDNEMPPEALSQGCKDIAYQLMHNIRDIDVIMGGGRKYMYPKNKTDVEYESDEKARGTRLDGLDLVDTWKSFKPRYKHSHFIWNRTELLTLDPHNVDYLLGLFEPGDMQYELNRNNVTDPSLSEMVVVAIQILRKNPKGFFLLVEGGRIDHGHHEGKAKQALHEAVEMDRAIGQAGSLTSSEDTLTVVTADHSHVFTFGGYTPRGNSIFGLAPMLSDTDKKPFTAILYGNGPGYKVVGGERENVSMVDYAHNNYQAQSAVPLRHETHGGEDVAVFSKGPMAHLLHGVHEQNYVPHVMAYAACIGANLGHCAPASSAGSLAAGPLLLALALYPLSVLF
# [20] = target: ATP-dependent translocase ABCB1 (Homo sapiens, UniProt P08183); experiment: ABCB1 efflux pump inhibitor potency, dose response, Jurkat-DNR cells, JC-1, flow cytometry (AID 1689); type: functional
smiles,measurement,setting,value
CCOC(=O)c1c(-c2ccc(-c3ccccc3)cc2)csc1NC(=O)C1C2CCC(O2)C1C(=O)O (stereo not given),IC50,Leucine aminopeptidase,6.09 µM (active)
same,IC50,Procathepsin L,> 59.6 µM (not active)
same,IC50,[1],5.15 µM (active)
same,IC50,[2],15.3 µM (active)
same,IC50,Aspartyl aminopeptidase,38.5 µM (not active)
same,IC50,Genome polyprotein,29.6 µM (active)
same,Ki,fMet-Leu-Phe receptor,> 66.7 µM (inactive)
CCc1ccc(NC(=S)N(Cc2ccc(Cl)cc2)Cc2ccc(C(=O)O)cc2)cc1,AC50,[3],> 100 µM (inactive)
CNC(=O)/C(C#N)=C/c1ccc(-c2nc3ccccc3s2)o1,IC50,Beta-galactosidase,> 80 µM (inactive)
same,EC50,[4],> 112 µM (not active)
same,EC50,[5],> 112 µM (not active)
CCCn1c(-c2cc(OC)c(OC)c(OC)c2)nc2c1c(=O)[nH]c(=O)n2Cc1ccccc1,IC50,[6],1.32 µM (active)
Nc1nc(CN2CCN(c3ccccc3)CC2)nc(N2CCCc3ccccc32)n1,EC50,[7],9.04 µM (active)
same,EC50,Streptokinase A,> 150 µM (not active)
same,EC50,Mu-type opioid receptor,92.5 µM (inactive)
same,EC50,Streptococcus,> 150 µM (not active)
same,EC50,[8],0.939 µM (active)
CCCc1c(C)nc2ccc(C(=O)O)cc2c1S,IC50,[9],22.8 µM (active)
same,IC50,Prothrombin,72.7 µM (active)
same,IC50,[10],18 µM (active)
same,IC50,[11],> 66.6 µM (inactive)
same,IC50,[12],72.6 µM (active)
same,IC50,[13],> 100 µM (inactive)
CC(=O)Oc1ccc(Cl)cc1/C=C/c1ccc2ccccc2n1,IC50,[14],3.28 µM (active)
same,IC50,[15],2.22 µM (active)
C[C@@H]1CN([C@H](C)CO)C(=O)c2cccc(NC(=O)c3nc4ccccc4s3)c2O[C@H]1CN(C)S(=O)(=O)c1ccccc1,AC50,[16],39 µM (inactive)
CCN1/C(=C/C=C/c2oc3ccc4ccccc4c3[n+]2CC)Oc2ccc3ccccc3c21,IC50,Beta-lactamase [17],> 59.6 µM (inactive)
same,IC50,Beta-lactamase [18],> 59.6 µM (inactive)
same,EC50,[19],> 100 µM (not active)
same,EC50,[20],0.713 µM (active)
